Experimental data as given in patent US20260284048A1, “INHIBITOR OF MEGAKARYOCYTE DIFFERENTIATION AND MATURATION” (OTSUKA PHARMACEUTICAL CO., LTD., priority 2023, published 2026).

Experiments:
Assay type in all cases: cell-based
PDE3A and SLFN12 = experiment: Complex formation of PDE3A and SLFN12 (immunoprecipitation using anti-PDE3A antibody); conditions: PFSK-1 and HeLa cell lines, 1 μmol/L, 16 hours, FIG. 1
Experimental: In order to examine whether Compound 1 forms a complex between PDE3A and SLFN12, a binding confirmation experiment using immunoprecipitation was performed. PFSK-1 and HeLa which are cell lines expressing PDE3A and SLFN12 were treated with Compound 1 (1 μmol/L) for 16 hours, and then immunoprecipitated using anti-PDE3A antibody.

SLFN12 protein = experiment: Increase of SLFN12 protein (Western blot analysis); conditions: 1 μmol/L, 16 hours, FIG. 2
Experimental: In order to examine the effect of Compound 1 on the protein level of SLFN12, Western blot analysis was performed. PFSK-1, HeLa, or U-87 MG cell lines were treated with Compound 1 (1 μmol/L) for 16 hours, and SLFN12 protein in each test sample was detected.

[1] = system: Bone marrow-derived CD34-positive cells (CD41-positive megakaryocytes); experiment: Inhibition of differentiation from CD34-positive cells toward megakaryocytes (HemaTox Megakaryocyte Kit, flow cytometry); conditions: 240 h, cultured 10 days, three donors
Experimental: It was studied whether Compound 1 inhibits the differentiation from CD34-positive cells toward megakaryocytes. Bone marrow-derived CD34-positive cells were cultured for 10 days in the presence and absence of Compound 1 in megakaryocyte differentiation medium (HemaTox™ Megakaryocyte Kit, STEMCELL™ Technologies) according to the kit's instruction. The number of the CD41-positive megakaryocytes was counted by flow cytometry and the cell viability relative to the untreated cell group was calculated. The test was conducted three times using CD34-positive cells derived from different donors, and the cell viability was determined with the control as 100%.

[2] = system: Bone marrow-derived CD34-positive cells (CD71-positive and CD235-positive erythroid cells); experiment: Differentiation from CD34-positive cells toward erythroblasts (HemaTox Erythroid Kit, flow cytometry); conditions: concentrations of 100 nmol/L or lower, cultured 7 days, two donors, FIG. 4
Experimental: It was studied whether Compound 1 inhibits the differentiation from CD34-positive cells toward erythroblasts. Bone marrow-derived CD34-positive cells were cultured for 7 days in erythroid differentiation medium (HemaTox™ Erythroid Kit, STEMCELL™ Technologies) according to the kit's instruction. The number of the CD71-positive and CD235-positive erythroid cells were counted by flow cytometry and the cell viability relative to the untreated cell group was calculated. The test was conducted twice using CD34-positive cells derived from different donors, and the cell viability was determined with the control as 100%.

[3] = system: Bone marrow-derived CD34-positive cells (CD13-positive and CD15-positive myeloid cells); experiment: Differentiation from CD34-positive cells toward myeloid cells (HemaTox Myeloid Kit, flow cytometry); conditions: cultured 7 days, two donors, FIG. 5
Experimental: It was studied whether Compound 1 inhibits the differentiation from CD34-positive cells toward myeloid cells. Bone marrow-derived CD34-positive cells were cultured for 7 days in myeloid differentiation medium (HemaTox™ Myeloid Kit, STEMCELL™ Technologies) according to the kit's instruction. The number of the CD13-positive and CD15-positive myeloid cells was counted by flow cytometry and the cell viability relative to the untreated cell group was calculated. The test was conducted twice using CD34-positive cells derived from different donors, and the cell viability was determined with the control as 100%.

## C[C@@H]1CC(=O)NN=C1c1ccc(OCC(C)(C)O)c(F)c1F [Compound 1, (R)-6-(2,3-difluoro-4-(2-hydroxy-2-methylpropoxy)phenyl)-5-methyl-4,5-dihydropyridazin-3(2H)-one]
PDE3A and SLFN12
  coprecipitation of SLFN12 with PDE3A (complex formation): coprecipitation with SLFN12 was confirmed
SLFN12 protein; PFSK-1 or HeLa (highly expresses PDE3A)
  SLFN12 protein level compared to untreated: increased SLFN12 protein levels were observed
SLFN12 protein; U-87 MG (hardly expresses PDE3A)
  SLFN12 protein level compared to untreated: no significant, Compound 1-dependent increase in SLFN12 protein level was observed
[1]; FIG. 3, read-out: concentration that significantly decreased the number of CD41-positive megakaryocytes
  minimal effective concentration: ≥ 0.003 µM
[1]; control as 100%, 95% confidence interval 10.3-23.7 nmol/L, read-out: 50% inhibitory concentration (IC50), number of CD41-positive megakaryocytes
  IC50: 17 nM
[2]
  effect on differentiation from hematopoietic stem cells toward erythroid cells: did not affect
[3]; 30 nmol/L
  effect on differentiation from hematopoietic stem cells toward myeloid cells: inhibited
[3]; 100 nmol/L
  effect on differentiation from hematopoietic stem cells toward myeloid cells: no significant difference
[3]
  concentration dependence of the effect on differentiation toward myeloid cells: no concentration-dependent inhibitory effect
